Experimental data reported in patent publication US8445677B2, “Substituted pyrimidyl guanidine derivatives having anticancer activity” (University of Southern California, priority 2008, dated 2013).
Several values for one entry are separate records, joined by “and”; a condition that tells them apart may be missing. Equal entries are not always repeated.

Legend:
Test in all cases: MTT cytotoxicity assay (Example 1)
HCT116 p53+/+ = format: cell-based; settings: MTT, 72 h
Description: (§1) Human breast cancer cells MDA-MB-435 were purchased from the American Type Culture Collection (Manassas, Va.). The HCT116 p53+/+ and HCT116 p53−/− cells were kindly provided by Dr. Bert Vogelstein (Johns Hopkins Medical Institutions, Baltimore, Md.). The human ovarian carcinoma cell line (HEY) which is naturally resistant to cisplatin, was kindly provided by Dr. Louis Dubeau, University of Southern California (USC) Norris Cancer Center, and NIH3T3 normal mouse fibroblast cells were kindly provided by Dr. Michael Press from USC. HEY and NIH3T3 cells were maintained as monolayer cultures in RPMI, HCT 116 cells in McCoy1s5A media and MDA-MB 435 in DMEM. Media were purchased from (Mediatech, Virginia) and supplemented with 10% fetal bovine serum (Gemini-Bioproducts, Woodland, Calif.), 2 mM L-glutamine and 5% Penicillin/streptomycin from Bio whittaker were purchased from VWR. Cells were incubated at 37° C. in a humidified atmosphere of 5% CO2. To remove the adherent cells from the flask for passaging and counting, cells were washed with PBS without calcium or magnesium, incubated with a small volume of 0.25% trypsin-EDTA solution (Sigma-Aldrich, St. Louis, Mo.) for 5-10 min, and washed with culture medium and centrifuged. All experiments were performed using cells at exponential growth stage. Cells were routinely checked for mycoplasma contamination using a PCR-based assay (Stratagene, Tex., USA).
(§2) Stock solutions (10 mM) of all compounds were prepared in DMSO and stored at −20° C. Further dilutions were made fresh in PBS or cell-culture media right before cell treatment.
(§3) Cytotoxicity was assessed by a 3-(4,s-dimethylthiazol-2-yl)-2,5-diphenyltetrazolium bromide (MTT) assay as previously described.^24 Briefly, cells were seeded in 96-well microtiter plates and allowed to attach overnight. Cells were subsequently treated with continuous exposure to the corresponding drug for 72 h. A MTT solution (at a final concentration of 0.5 mglml) was added to each well, and cells were incubated for 4 h at 37° C. After removal of the medium, DMSO was added and the absorbance was read at 570 nm. All assays were done in triplicate. The IC50 was then determined for each drug from a plot of log (drug concentration) versus percentage of cells killed.

HCT116 p53−/− = format: cell-based; settings: MTT, 72 h
Description: as §1, §2, §3

HEY = format: cell-based, human; settings: 72 h
Description: as §1, §2, §3

MDA-MB-435 = format: cell-based, human
Description: as §1, §2, §3

NIH3T3 = format: cell-based, mouse
Description: as §1, §2, §3

Compound | IC50 (HCT116 p53+/+; Homo sapiens, HCT-116, 72 h) [µM] | IC50 (HCT116 p53−/−; Homo sapiens, HCT-116, 72 h) [µM] | IC50 (HEY; Homo sapiens) [µM] | IC50 (MDA-MB-435; Homo sapiens, MDA-MB-435, 72 h) [µM] | IC50 (NIH3T3; Mus musculus, NIH3T3, 72 h) [µM] | IC50 (HEY) [µM] | IC50 (HCT116 p53−/−) [µM] | IC50 (NIH3T3; 72 h) [µM] | IC50 (HCT116 p53+/+) [µM] | IC50 (MDA-MB-435; 72 h)
C=CCn1c(=O)c(C(=O)Nc2nc(CC(=O)OCC)cs2)c(O)c2ccccc21 [Compound 31] | 20 | > 10 | > 10 | > 10 | > 10 |  |  |  |  | 
COc1ccc(/C=N/Nc2nc3nonc3nc2Nc2ccccc2OC)cc1Br [Compound 9] | > 20 | > 10 | > 10 | > 20 | > 10 |  |  |  |  | 
O=C(Nn1c(Cc2ccccc2)nc2ccccc2c1=O)c1c(O)c2cccc3c2n(c1=O)CCC3 [Compound 28] | > 20 | > 10 | 19 | > 10 | > 10 | 15 |  |  |  | 
COC(=O)/C=C1/N=C(Nc2nc3cc(C)ccc3o2)NC1=O [Compound 35] | 5 | 4.2 | 3.5 | 6 | 11 | 2 | 3.4 | 6 |  | 
Oc1ccc(Br)cc1/C=N/Nc1nc2nonc2nc1Nc1ccc(Cl)cc1 [Compound 6] | < 3 | < 3 | < 3 | < 3 | 2 ± 0.5 | 1.6 ± 0.6 | 1.6 ± 0.7 |  | 2.7 ± 0.6 | 4 ± 1 µM
COc1ccccc1Nc1nc2nonc2nc1N/N=C/c1ccccc1F [Compound 10] | > 10 | > 10 | > 10 | > 10 | > 10 |  |  |  |  | 
CCCc1nc2ccccc2c(=O)n1NC(=O)c1c(O)c2cccc3c2n(c1=O)CCC3 [Compound 27] | > 20 | > 10 | > 20 | > 20 | 12 |  |  |  |  | 
C1C2CC3CC1CC(C2)C3Nc1nc2nonc2nc1NC1C2CC3CC(C2)CC1C3 (stereo not shown) [Compound 24] | 6 | 9 ± 1 | 8 ± 1.7 | 9 | 9 |  |  |  | 8 | 
COc1ccc(/C=N/Nc2nc3nonc3nc2Nc2ccc(F)cc2)cc1Br [Compound 4] | 4 | 3 | 10 | 10 | 6 |  | 2 |  |  | 
Cc1cccc(Nc2nc3nonc3nc2NN=Cc2ccc(-c3cccc(C(=O)O)c3)o2)c1 [Compound 20] | > 10 | > 10 | 8 | > 10 | 10 |  |  |  |  | 
O=C(O)c1cc(-c2ccc(C=NNc3nc4nonc4nc3Nc3cccc(Br)c3)o2)ccc1O [Compound 18] | > 10 | > 10 | > 10 | > 10 | 11 |  |  |  |  | 
Cc1cc(-c2ccc(/C=N/Nc3nc4nonc4nc3Nc3ccccc3F)o2)c(C)c([N+](=O)[O-])c1 [Compound 16] | 1.5 | 0.8 ± 0.1 | 0.8 | 4 | 2 |  |  |  |  | 
CCCCCCc1nc2ccccc2c(=O)n1NC(=O)c1c(O)c2ccccc2n(CC)c1=O [Compound 26] | > 20 | > 10 | 20 | > 20 | 20 |  |  |  |  | 
CCOc1ccc2nc(NC(=N)/N=C(\C)c3ccccc3C(=O)O)nc(C)c2c1 [Compound 34] | 20 | 10 | 7 | > 20 | > 10 |  |  |  |  | 
c1coc(CNc2nc3nonc3nc2NCc2ccco2)c1 [Compound 21] | > 20 | > 10 | > 20 | > 20 | > 10 |  |  |  |  | 
CCCn1c(=O)c(C(=O)Nc2nnc(CC(C)C)s2)c(O)c2ccccc21 [Compound 29] | > 20 | > 10 | > 20 | > 20 | > 10 |  |  |  |  | 
CCOC(=O)c1ccc(Nc2nc3nonc3nc2N/N=C/c2cccc3ccccc23)cc1 [Compound 11] | > 10 | 2 | 4 | > 10 | 2 |  |  |  |  | 

Compound | IC50 (HCT116 p53+/+; Homo sapiens, HCT-116, 72 h) [µM] | IC50 (HCT116 p53−/−; Homo sapiens, HCT-116, 72 h) [µM] | IC50 (HEY; Homo sapiens) [µM] | IC50 (MDA-MB-435; Homo sapiens, MDA-MB-435, 72 h) [µM] | IC50 (NIH3T3; Mus musculus, NIH3T3, 72 h) [µM] | IC50 (HEY) [µM] | IC50 (HCT116 p53−/−) [µM] | IC50 (NIH3T3; 72 h) [µM] | IC50 (HCT116 p53+/+) [µM] | IC50 (MDA-MB-435; 72 h)
O=C(O)c1cccc(-c2ccc(C=NNc3nc4nonc4nc3Nc3ccc(F)cc3)o2)c1 [Compound 15] |  |  |  | < 3 | 10 |  |  |  |  | 2.8 µM and 3 µM
O=C(O)c1cc(-c2ccc(C=NNc3nc4nonc4nc3Nc3ccc(F)cc3)o2)ccc1Cl [Compound 13] | > 10 | 7 | > 10 | > 10 | 10 |  |  |  |  | 
O=C(O)c1cc(-c2ccc(/C=N/Nc3nc4nonc4nc3Nc3ccccc3F)o2)ccc1Cl [Compound 17] |  |  |  |  |  | 15 | > 10 | > 10 | 7 ± 1 | > 20 µM
CCCCn1c(=O)c(C(=O)Nc2nc(CC(=O)OCC)cs2)c(O)c2ccccc21 [Compound 32] | 10 ± 1 | > 10 | 15 | 20 | 8 |  |  |  |  | 
Cc1ccccc1Nc1nc2nonc2nc1N/N=C/c1cccc2ccccc12 [Compound 12] | > 10 | 10 | > 10 | > 10 | 10 |  |  |  |  | 
COC(=O)c1ccc(/C=N/Nc2nc3nonc3nc2Nc2ccccc2F)cc1 [Compound 1] | > 10 | 10 | 10 | 5 | > 10 |  |  |  |  | 
Cc1ccccc1Nc1nc2nonc2nc1N/N=C/c1cc(Br)ccc1O [Compound 8] | 2 | 1.1 ± 0.4 | 5 | > 10 | > 10 |  |  |  |  | 
c1cc(N2CCOCC2)ccc1Nc1nc2nonc2nc1Nc1ccc(N2CCOCC2)cc1 [Compound 23] | > 10 | > 10 | > 10 | > 10 | > 10 |  |  |  |  | 
Brc1ccc(/C=N/Nc2nc3nonc3nc2Nc2cccc(Br)c2)cc1 [Compound 5] | 2 | 1.1 | 2 | > 10 | 1 | 3 | 1.2 |  |  | 
CCCCn1c(=O)c(C(=O)Nc2nnc(C)s2)c(O)c2ccccc21 [Compound 30] | 6 ± 3 | 8 | 10 | 7 | 5 | 14 |  |  |  | 
COc1cc(/C=N/Nc2nc3nonc3nc2Nc2ccc(Cl)cc2)ccc1O [Compound 7] | > 10 | 5.5 | 2 | > 10 | > 10 |  |  |  |  | 
CCCn1c(=O)c(C(=O)NNC(=O)COc2ccccc2)c(O)c2ccccc21 [Compound 25] | 10 | > 10 | > 10 | > 20 | > 10 |  |  |  |  | 
COc1cc(/C=N/Nc2nc3nonc3nc2Nc2ccccc2F)ccc1O [Compound 3] | > 10 | > 10 | 5 | > 10 | > 10 |  |  |  |  | 
C/C(=N\C(=N)Nc1nc(C)c2cc(C)ccc2n1)c1ccccc1C(=O)O [Compound 33] | 18 | 5 | 5 | 17 | 14 | 3 |  |  |  | 18 µM
O=C(O)c1cc(-c2ccc(/C=N/Nc3nc4nonc4nc3Nc3ccccc3F)o2)ccc1Cl [Compound 14] | > 10 | 7 | 10 | > 10 | > 10 |  |  |  |  | 
O=C(O)c1ccccc1Nc1nc2nonc2nc1Nc1ccccc1C(=O)O [Compound 22] | > 10 | > 10 | > 10 | > 10 | > 10 |  |  |  |  | 
